Biological target: T1, recombinant full-length human GSK3β (Homo sapiens, UniProt P49841)
T1 construct: recombinant full-length human GSK3β (Upstate); purchased Upstate
Assay: cell-free GSK3 kinase assay (KinaseGlo luciferase)
Format: biochemical
Settings: Table 1; 5 μM ATP, 1 hour at 30 degrees Celsius
Procedure: Proceed to KinaseGlo luciferase reaction.
Following the completion of the kinase reaction an equal volume of KinaseGlo luciferase reagent (Promega) is added and the luminescence read using a luminescence plate reader within 5-10 minutes.

T1 sequence (P49841 whole entry): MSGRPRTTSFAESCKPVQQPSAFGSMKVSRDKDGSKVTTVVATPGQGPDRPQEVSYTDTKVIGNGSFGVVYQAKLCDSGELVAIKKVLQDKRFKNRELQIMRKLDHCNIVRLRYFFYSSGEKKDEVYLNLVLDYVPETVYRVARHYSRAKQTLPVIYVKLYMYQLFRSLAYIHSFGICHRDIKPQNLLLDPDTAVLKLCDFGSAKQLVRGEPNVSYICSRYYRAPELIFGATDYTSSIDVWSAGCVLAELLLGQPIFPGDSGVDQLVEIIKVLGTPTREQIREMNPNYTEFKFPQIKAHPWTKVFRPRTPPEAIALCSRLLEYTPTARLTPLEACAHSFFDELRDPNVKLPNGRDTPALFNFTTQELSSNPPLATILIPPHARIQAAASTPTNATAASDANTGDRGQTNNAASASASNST

IC50 [nM] | SMILES
16 to 60 | Nc1c(F)c(NCCNc2ccccn2)c2c3c1c(=O)c(C(=O)O)cn3C1(CCC1)CCN2 [Compound 53]
61 to 150 | COc1ccc(CNc2c(F)c(N)c3c(=O)c(C(=O)O)cn4c3c2OCCC42CCC2)cc1 [Compound 55]
< 15 | Nc1c(F)c(NCCCc2ccccn2)c2c3c1c(=O)c(C(=O)O)cn3C1(CCC1)CCO2 [Compound 56]
16 to 60 | CCN(CCCNc1c(F)c(N)c2c(=O)c(C(=O)O)cn3c2c1OCCC31CCC1)c1ccccc1 [Compound 57]
16 to 60 | Nc1c(F)c(NCCNC(=O)c2ccccn2)c2c3c1c(=O)c(C(=O)O)cn3C1(CCC1)CCO2 [Compound 58]
< 15 | Nc1c(F)c(NCCCc2ccc(F)cc2)c2c3c1c(=O)c(C(=O)O)cn3C1(CCC1)CCO2 [Compound 59]
< 15 | Nc1c(F)c(NCCCn2ccnc2)c2c3c1c(=O)c(C(=O)O)cn3C1(CCC1)CCO2 [Compound 60]
61 to 150 | Nc1nc(NCCNc2c(F)c(N)c3c(=O)c(C(=O)O)cn4c3c2OCCC42CCC2)ccc1[N+](=O)[O-] [Compound 61]
> 150 | Nc1c(F)c(NC2CCN(c3ccccn3)C2)c2c3c1c(=O)c(C(=O)O)cn3C1(CCC1)CCO2 (stereo not shown) [Compound 62]
> 150 | Nc1c(F)c(N[C@H]2C[C@H]2Cc2ccccn2)c2c3c1c(=O)c(C(=O)O)cn3C1(CCCC1)CO2 [Compound 63]
16 to 60 | Nc1c(F)c(N[C@@H]2C[C@H]2Cc2ccccn2)c2c3c1c(=O)c(C(=O)O)cn3C1(CCCC1)CO2 [Compound 64]
< 15 | Nc1c(F)c(NCCCc2ccccc2)c2c3c1c(=O)c(C(=O)O)cn3C1(CCCC1)CO2 [Compound 65]
> 150 | Nc1c(F)c(NCCOc2ccccc2)c2c3c1c(=O)c(C(=O)O)cn3C1(CCCC1)CO2 [Compound 66]
> 150 | CC(C)c1ccc(OCCNc2c(F)c(N)c3c(=O)c(C(=O)O)cn4c3c2OCC42CCCC2)cc1 [Compound 67]
16 to 60 | Nc1c(F)c(NCCNC(=O)c2ccccn2)c2c3c1c(=O)c(C(=O)O)cn3C1(CCCC1)CO2 [Compound 68]
< 15 | COc1cccc(CCCNc2c(F)c(N)c3c(=O)c(C(=O)O)cn4c3c2OCC42CCCC2)c1 [Compound 69]
< 15 | Nc1c(F)c(NCCCn2cnc3ccccc32)c2c3c1c(=O)c(C(=O)O)cn3C1(CCCC1)CO2 [Compound 70]
> 150 | Nc1c(F)c(NCCN2CCC(c3ccccc3)C2)c2c3c1c(=O)c(C(=O)O)cn3C1(CCCC1)CO2 (stereo not shown) [Compound 71]
> 150 | Nc1c(F)c(NCCC(c2ccccc2)c2ccc3c(c2)OCO3)c2c3c1c(=O)c(C(=O)O)cn3C1(CCCC1)CO2 (stereo not shown) [Compound 72]
> 150 | CC(COc1ccc(Cl)cc1)Nc1c(F)c(N)c2c(=O)c(C(=O)O)cn3c2c1OCC31CCCC1 (stereo not shown) [Compound 74]
> 150 | Nc1c(F)c(NCCOc2ccc(-c3ccccc3)cc2)c2c3c1c(=O)c(C(=O)O)cn3C1(CCCC1)CO2 [Compound 75]
> 150 | Nc1c(F)c(NCCSc2nc3ccccc3[nH]2)c2c3c1c(=O)c(C(=O)O)cn3C1(CCCC1)CO2 [Compound 76]

IC50 [nM] | SMILES
< 15 | Nc1c(F)c(N[C@H]2CC[C@H](n3ccnc3)C2)c2c3c1c(=O)c(C(=O)O)cn3C1(CCCC1)CO2 [Compound 77]
< 15 | Nc1c(F)c(N[C@H]2CC[C@H](c3ccccn3)C2)c2c3c1c(=O)c(C(=O)O)cn3C1(CCCC1)CO2 [Compound 78]
> 150 | Nc1c(F)c(N[C@@H]2CC[C@H](c3ccccn3)C2)c2c3c1c(=O)c(C(=O)O)cn3C1(CCCC1)CO2 [Compound 79]
< 15 | Nc1c(F)c(NCCCc2ccncc2)c2c3c1c(=O)c(C(=O)O)cn3C1(CCCC1)CO2 [Compound 80]
< 15 | N#Cc1ccc(CCCNc2c(F)c(N)c3c(=O)c(C(=O)O)cn4c3c2OCC42CCCC2)nc1 [Compound 81]
16 to 60 | Nc1c(F)c(NCCNc2ccccn2)c2c3c1c(=O)ccn3C1(CCC1)CCO2 [Compound 82]
61 to 150 | Nc1c(F)c(NCCCc2ccccn2)c2c3c1c(=O)ccn3C1(CCC1)CCO2 [Compound 83]
< 15 | Nc1c(F)c(NCCCn2ccnc2)c2c3c1c(=O)ccn3C1(CCC1)CCO2 [Compound 84]
16 to 60 | Nc1c(F)c(NCCCc2ccccn2)c2c3c1c(=O)ccn3C1(CCCC1)CO2 [Compound 85]
< 15 | NC(=O)c1cn2c3c(c(NCCNc4ccccn4)c(F)c(N)c3c1=O)OCCC21CCC1 [Compound 86]
< 15 | NNC(=O)c1cn2c3c(c(NCCNc4ccccn4)c(F)c(N)c3c1=O)OCCC21CCC1 [Compound 88]
< 15 | Nc1c(F)c(NCCNc2ccccn2)c2c3c1c(=O)c(C(=O)NO)cn3C1(CCC1)CCO2 [Compound 89]
> 150 | CNC(=O)c1cn2c3c(c(NCCNc4ccccn4)c(F)c(N)c3c1=O)OCCC21CCC1 [Compound 90]
16 to 60 | N#Cc1cn2c3c(c(NCCNc4ccccn4)c(F)c(N)c3c1=O)OCCC21CCC1 [Compound 91]
16 to 60 | N#Cc1cn2c3c(c(NCCCn4ccnc4)c(F)c(N)c3c1=O)OCCC21CCC1 [Compound 93]
16 to 60 | Cc1c(C(=O)O)c(=O)c2c(N)c(F)c(NCCNc3ccccn3)c3c2n1C1(CCC1)CCO3 [Compound 94]
61 to 150 | Nc1c(Cl)c(NCCNc2ccccn2)c2c3c1c(=O)c(C(=O)O)cn3C1(CCC1)CCO2 [Compound 95]
< 15 | Nc1c(F)c(NCCCn2ccnc2)c2c3c1c(=O)c(C(=O)O)cn3C1(CCCC1)CO2 [Compound 96]
16 to 60 | Nc1c(F)c(NCCCn2ccnc2)c2c3c1c(=O)c(C(=O)O)cn3C1(CCC1)CCO2 [Compound 97]
> 150 | Nc1c(F)c(N2CCC(Nc3ccccn3)C2)c2c3c1c(=O)c(C(=O)O)cn3C1(CCCC1)CO2 (stereo not shown) [Compound 98]
> 150 | Cc1cc(=O)c2c(N)c(F)c(NCCNc3ccccn3)c3c2n1C1(CCC1)CCO3 [Compound 99]

Source: patent US8476261B2, “Spirocyclic aminoquinolones as GSK-3 inhibitors” (Kyorin Pharmaceutical Co., Ltd., priority 2007, dated 2013)
